This is an account of results in PMC10302146, “Dual Anta-Inhibitors Targeting Protein Kinase CK1δ and A2A Adenosine Receptor Useful in Neurodegenerative Disorders” (Molecules, 2023).

Molecules are shown by their SMILES.

One series deals with human recombinant A2AAR. Also noted: method as in PMID 37259317. The following applies: [3H]NECA, membranes from CHO cells stably transfected; means ± standard errors; read-out: KiA2A; cited from earlier work.
The target in another series is human recombinant A1AR. Also noted: method as in PMID 37259317. To be noted: [3H]CCPA, membranes from CHO cells stably transfected; means ± standard errors; read-out: KiA1; cited from earlier work.
The next series concerns N13 microglial cells. Kind of series: N13 cell viability, CK cocktail 48 h pretreatment then ligand (A2AAR antagonist protocol). The following applies: for effect after CK cocktail damage in the presence of NECA: compound 1 7.5 µM, compound 2 4.5 µM, NECA 10 µM; for effect after CK cocktail damage in the presence of NECA / counteraction of CK cocktail effect (cell viability): 60 min; for effect after CK cocktail damage in the presence of NECA / rescue of inflammatory damage (cell viability): after CK cocktail 20 ng/mL 48 h; for rescue of inflammatory damage (cell viability) / counteraction of CK cocktail effect (cell viability): lower concentrations (0.625 µM compound 1, 0.375 µM compound 2); for rescue of inflammatory damage (cell viability): 30 min; for counteraction of CK cocktail effect (cell viability): after CK cocktail 48 h. The procedure:
Given the nature of compounds, dual A2A/CK1δ anta-inhibitors, their neuroprotective effect against a neuroinflammatory insult was investigated following two different approaches aimed at studying the antagonist activity on the A2AAR and the inhibitor effect on CK1δ. […] The concentrations used were 35, 65, and 400 µM at 60 min of incubation.
N13 cells were plated in 96-well plates at the confluence of 1 × 10^4 cells/well and incubated overnight. Cells were divided into two groups in order to study the activity of compounds on A2AAR and CK1δ (Scheme 1). […] Cells of the second group were pretreated with 2 µL at different concentrations of understudy ligand, or the reference compound PF670462, for 30 or 60 min and then with further addition of a proinflammatory cocktail of cytokines for 48 h (Scheme 1). After treatment, 20 µL of CellTiter 96® AQueous One Solution Reagent was added to each well to a final volume of 100 µL. After 1 h of incubation, absorbance was measured at 492 nm in the microplate reader GENiosPro. Cell viability was estimated as the relation between the OD of treated cells and the OD of untreated cells in percentage. An untreated control and a control with the solvent were run. Experiments were performed in triplicate.

A further series concerns the target human recombinant A3AR. On the set-up: method as in PMID 37259317. The following applies: [3H]HEMADO, membranes from CHO cells stably transfected; means ± standard errors; read-out: KiA3; cited from earlier work.
A further series has as its system CK1δ. On the set-up: method as in PMID 37259317. The following applies: cited from earlier work; for IC50: enzymatic inhibition.

Broadly, the IC50 is the point on the concentration scale where inhibition reaches its midpoint. On to `CN(C)c1nc(NCc2nc3ccccc3[nH]2)c2ncn(C3CCCC3)c2n1` [compound 2, N^6-methyl-(2-benzimidazolyl)-2-dimethyamino-9-cyclopentyladenine], for which, at human recombinant A2AAR, the Ki is 0.0762 ± 0.173 µM. The Ki on human recombinant A1AR was 2.9 ± 0.648 µM. In the series with N13 microglial cells, the cell viability is on record as 125% ± 3.1, the “effect after CK cocktail damage in the presence of NECA” value was “significantly lower than that obtained in the absence of NECA”, the “rescue of inflammatory damage (cell viability)” value is reported as “unable to rescue the inflammatory damage” and the “counteraction of CK cocktail effect (cell viability)” value was “able to counteract the effect of the CK cocktail”. Further, the Ki on human recombinant A3AR is 1.15 ± 0.107 µM. Also, in the series with CK1δ, the “% Residual Activity at 10 μM ± sd” value was 34 ± 5.0%, the “% Residual Activity at 40 μM ± sd” value is 22 ± 1.0% and the IC50 is 0.59 ± 0.2 µM.
One may read the viability as a read-out of living cells in per cent, often relative to untreated cells. Consider `CN(C)c1nc(N)c2ncn(C3CCCC3)c2n1` [compound 1, 9-Cyclopentyl-N2,N2-dimethyl-9H-purine-2,6-diamine], for which the Ki on human recombinant A2AAR is 0.123 ± 0.002 µM. On human recombinant A1AR, the Ki was 3.34 ± 0.658 µM. In addition, the viability at 7.5 µM in the series on N13 microglial cells (N13, 48 h, read-out: cell viability) came to 89%. In the series with N13 microglial cells, the “effect after CK cocktail damage in the presence of NECA” value is on record as “significantly lower than that obtained in the absence of NECA”, the “rescue of inflammatory damage (cell viability)” value is “unable to rescue the inflammatory damage” and the “counteraction of CK cocktail effect (cell viability)” value is “able to counteract the effect of the CK cocktail”. Moreover, the Ki on human recombinant A3AR is 2.88 ± 0.695 µM. Besides, in the series on CK1δ, the “% Residual Activity at 10 μM ± sd” value was 27 ± 4.0%, the “% Residual Activity at 40 μM ± sd” value is recorded as 19 ± 9.4% and the IC50 is 1.75 ± 0.2 µM.
